The subject of one experiment is BMP-2 promoter. As to the kind of experiment: ABA assay: BMP-2 promoter-luciferase reporter in 2T3-BMP-2-LUC osteoblast cells. Type of experiment: cell-based, mouse. How it is done: These transformed cells are then evaluated for the production of the reporter gene product; compounds that activate the BMP promoter will drive production of the reporter protein, which can be readily assayed.
The cells were cultured using α-MEM, 10% FCS with 1% penicillin/streptomycin and 1% glutamine (“plating medium”), and were split 1:5 once per week. For the assay, the cells were resuspended in a plating medium containing 4% FCS, plated in microtiter plates at a concentration of 5×10^3 cells (in 50 μl)/well, and incubated for 24 hours at 37° C. in 5% CO2. To initiate the assay, 50 μl of the test compound or the control in DMSO was added at 2× concentration to each well, so that the final volume was 100 μl. The final serum concentration was 2% FCS, and the final DMSO concentration was 1%.
The treated cells were incubated for 24 hours at 37° C. and 5% CO2. The medium was then removed, and the cells were rinsed three times with PBS. After removal of excess PBS, 25 μl of 1× cell culture lysing reagent (Promega #E153A) was added to each well and incubated for at least ten minutes. Optionally, the plates/samples could be frozen at this point. To each well was added 50 μl of luciferase substrate (Promega #E152A; 10 ml Promega luciferase assay buffer per 7 mg Promega luciferase assay substrate). Luminescence was measured on an automated 96-well luminometer, and was expressed as either picograms of luciferase activity per well or as picograms of luciferase activity per microgram of protein.
Alternatively, the reactivity of a compound to be tested can be compared directly to a negative control containing no compound.
In general terms: A reporter such as luciferase makes a cellular process visible.

The subject of a further experiment is neonatal mouse calvaria. The experiment is described as follows: Neonatal mouse calvaria assay (in vitro bone formation). It is filed as cell-based. How it is done:
Briefly, four days after birth, the front and parietal bones of ICR Swiss white mouse pups are removed by microdissection and split along the sagittal suture.
Three μm sections of the calvaria are prepared. Representative sections are selected for histomorphometric assessment of bone formation or bone resorption. Bone changes are measured on sections cut 200 μm apart. Osteoblasts and osteoclasts are identified by their distinctive morphology.
Selected compounds and appropriate controls were assayed in vitro (ex vivo) for bone formation activity (described above in “Neonatal Mouse Calvaria Assay (in vitro)”). Histomorphometrical assessments of ex vivo calvaria were carried out using an OsteoMetrics bone morphometry measurement program, according to the manufacturer's instructions. Measurements were determined using either a 10- or 20-fold objective with a standard point counting eyepiece graticule.
New bone formation was determined (using a 10× objective) by measuring the new bone area formed in one field in 3 representative sections of each bone (4 bones per group). Each measurement was carried out ½ field distance from the end of the suture. Both total bone and old bone area were measured. Data were expressed as new bone area in mm^2.
Osteoblast numbers were determined by point counting. The number of osteoblast cells lining the bone surface on both sides of the bone were counted in one field using a 20× objective. Data were expressed as osteoblast numbers/mm of bone surface.
The results were calculated as new bone area in mm^2×10^−3, as above.

The mark [1] stands for this setting: under these conditions (0.1-1000 μM).
Setting [2] is: Experiment 3, 8.88178E μg/ml (0.002193 μM lovastatin, 0.002087 μM fluvastatin).

In the case of `CC[C@H](C)C(=O)O[C@H]1C[C@H](O)C=C2C=C[C@H](C)[C@H](CC[C@@H](O)C[C@@H](O)CC(=O)O)[C@H]21` [Pravastatin, pravastatin], the “% 59-0008 Response” value is given as −4.390% in the experiment on BMP-2 promoter (Experiment 1, 0.195312 μg/ml); −1.290% in the experiment with BMP-2 promoter (Experiment 1, 0.390625 μg/ml); −1.980% with BMP-2 promoter (Experiment 1, 0.78125 μg/ml); −1.120% in the experiment on BMP-2 promoter (Experiment 1, 1.5625 μg/ml); 0.380% with BMP-2 promoter (Experiment 1, 3.125 μg/ml); 0.920% with BMP-2 promoter (Experiment 1, 6.25 μg/ml). Also, the “% 59-0008 Response” value in the experiment with BMP-2 promoter (Experiment 1, 12.5 μg/ml) came out at 1.110%; in the experiment with BMP-2 promoter (Experiment 1, 25 μg/ml), 3.520%; with BMP-2 promoter (Experiment 1, 50 μg/ml), 5.000%; in the experiment with BMP-2 promoter (Experiment 1, 100 μg/ml) it was 7.620%; in the experiment with BMP-2 promoter (Experiment 1, 200 μg/ml), 11.670%. Moreover, the “Fold increase over negative control” value in the experiment with BMP-2 promoter (Experiment 1, 0.195312 μg/ml) amounted to 0.807 fold; in the experiment with BMP-2 promoter (Experiment 1, 0.390625 μg/ml) it was 0.943 fold; in the experiment with BMP-2 promoter (Experiment 1, 0.78125 μg/ml), 0.913 fold; in the experiment on BMP-2 promoter (Experiment 1, 1.5625 μg/ml), 0.951 fold; with BMP-2 promoter (Experiment 1, 3.125 μg/ml), 1.017 fold; with BMP-2 promoter (Experiment 1, 6.25 μg/ml), 1.040 fold. Also, the “Fold increase over negative control” value with BMP-2 promoter (Experiment 1, 12.5 μg/ml) turned out to be 1.049 fold; in the experiment with BMP-2 promoter (Experiment 1, 25 μg/ml) it was 1.155 fold; with BMP-2 promoter (Experiment 1, 50 μg/ml), 1.220 fold; in the experiment with BMP-2 promoter (Experiment 1, 100 μg/ml) it was 1.335 fold; in the experiment with BMP-2 promoter (Experiment 1, 200 μg/ml), 1.513 fold.
Take `O=P(O)(O)C(Cl)(Cl)P(=O)(O)O` [Clodronate, clodronate]: the “New Bone Area” value in the experiment on neonatal mouse calvaria (other bisphosphonates, 10 μM) is listed as 4.8 ± 1.3 mm^2 × 10^−3; in the experiment with neonatal mouse calvaria (other bisphosphonates, 100 μM) it was 4.6 ± 0.6 mm^2 × 10^−3; in the experiment with neonatal mouse calvaria (other bisphosphonates, 1000 μM) it was 3.5 ± 0.5 mm^2 × 10^−3. Also, the “effect on new bone area” value with neonatal mouse calvaria (setting [1]) is “negligible effects”.
As to `CCCCCN(C)CCC(O)(P(=O)(O)O)P(=O)(O)O` [Ibandronate, ibandronate], in the experiment on neonatal mouse calvaria (10 μM), the “effect on bone formation (dose response curves)” value is on record as “significant increase of bone formation”. Also, the “New Bone Area” value in the experiment with neonatal mouse calvaria (Experiment 1, 10 μM) is listed as 8.3 ± 0.7 mm^2 × 10^−3; in the experiment on neonatal mouse calvaria (Experiment 1, 100 μM), “Toxic”; in the experiment with neonatal mouse calvaria (Experiment 1, 1000 μM), “Toxic”; with neonatal mouse calvaria (Experiment 2, 0.01 μM), 3.5 ± 0.43 mm^2 × 10^−3; in the experiment on neonatal mouse calvaria (Experiment 2, 0.1 μM), 3.2 ± 0.56 mm^2 × 10^−3; with neonatal mouse calvaria (Experiment 2, 1 μM), 4.9 ± 1.2 mm^2 × 10^−3. Also, the “New Bone Area” value in the experiment on neonatal mouse calvaria (Experiment 2, 10 μM) is reported as 7.2 ± 0.7 mm^2 × 10^−3; in the experiment with neonatal mouse calvaria (Experiment 2, 100 μM), “Toxic”; with neonatal mouse calvaria (Experiment 2, 1000 μM) it was “Toxic”; with neonatal mouse calvaria (Experiment 3, 0.1 μM), 6.2 ± 0.6 mm^2 × 10^−3; with neonatal mouse calvaria (Experiment 3, 1 μM) it was 7.5 ± 0.7 mm^2 × 10^−3; in the experiment on neonatal mouse calvaria (Experiment 3, 10 μM) it was 9.5 ± 2.4 mm^2 × 10^−3. Further, the “New Bone Area” value is “Toxic” with neonatal mouse calvaria (Experiment 3, 100 μM); 3.95 ± 0.28 mm^2 × 10^−3 in the experiment with neonatal mouse calvaria (combination study, IBN (1 μM), ibandronate 1 μM alone); 6.03 ± 1.56 mm^2 × 10^−3 in the experiment with neonatal mouse calvaria (combination study, IBN (10 μM), ibandronate 10 μM alone).
For the compound `c1ccc(N=NC2=NNc3ccccc3S2)cc1` [59-0008, 3-phenylazo-1H-4,1,2-benzothiadiazine], in the experiment with BMP-2 promoter, the “concentration at which reactivity is maximal” value was in the range of 3 to 10 µM.
Turning to `O=P(O)(O)C(O)(Cc1cccnc1)P(=O)(O)O` [Risedronate, risedronate], in the experiment with neonatal mouse calvaria (10 μM and 100 μM), the “effect on new bone area” value was “significant increases in new bone area”. The “New Bone Area” value with neonatal mouse calvaria (other bisphosphonates, 10 μM) is 8.5 ± 0.5 mm^2 × 10^−3; in the experiment with neonatal mouse calvaria (other bisphosphonates, 100 μM), 7.3 ± 1.9 mm^2 × 10^−3; in the experiment with neonatal mouse calvaria (other bisphosphonates, 1000 μM), “Toxic”.
Consider `NCCCC(O)(P(=O)(O)O)P(=O)(O)O` [Alendronate, alendronate], for which the “New Bone Area” value is 3.5 ± 0.3 mm^2 × 10^−3 with neonatal mouse calvaria (other bisphosphonates, 0.1 μM); 5.2 ± 0.5 mm^2 × 10^−3 in the experiment on neonatal mouse calvaria (other bisphosphonates, 1 μM); 3.3 ± 0.6 mm^2 × 10^−3 in the experiment on neonatal mouse calvaria (other bisphosphonates, 10 μM); “Toxic” in the experiment with neonatal mouse calvaria (other bisphosphonates, 100 μM). In addition, the “effect on new bone area” value with neonatal mouse calvaria (setting [1]) is recorded as “negligible effects”.
With `NCCC(O)(P(=O)(O)O)P(=O)(O)O` [Pamidronate, pamidronate], the “New Bone Area” value in the experiment on neonatal mouse calvaria (other bisphosphonates, 10 μM) was 6.0 ± 0.5 mm^2 × 10^−3; with neonatal mouse calvaria (other bisphosphonates, 100 μM) it was 5.8 ± 0.6 mm^2 × 10^−3; in the experiment on neonatal mouse calvaria (other bisphosphonates, 1000 μM), 5.2 ± 0.6 mm^2 × 10^−3. The “effect on new bone area” value in the experiment on neonatal mouse calvaria (setting [1]) is given as “negligible effects”.
Regarding `CC(O)(CCO)CC(=O)O` (centres unmarked) [mevalonate], in the experiment on BMP-2 promoter, the “effect of mevalonic acid on primary screen activity of 59-0008” value is on record as “no effect”. For the same compound, in the experiment on BMP-2 promoter (mevalonate 25-800 μM, mevastatin 100, 25, or 6.25 μM), the “effect of added mevalonate on the activity of mevastatin in the ABA assay” value is reported as “inhibits the activity of mevastatin”.
`CC(C)n1c(/C=C/C(O)CC(O)CC(=O)O)c(-c2ccc(F)cc2)c2ccccc21` (centres unmarked) [Fluvastatin, fluvastatin]: the “% 59-0008 Response” value in the experiment with BMP-2 promoter (Experiment 1, 0.195312 μg/ml) came out at 36.820%; with BMP-2 promoter (Experiment 1, 0.390625 μg/ml), 28.080%; in the experiment on BMP-2 promoter (Experiment 1, 0.78125 μg/ml), 75.160%; with BMP-2 promoter (Experiment 1, 1.5625 μg/ml), 117.980%; in the experiment on BMP-2 promoter (Experiment 1, 3.125 μg/ml), 173.280%; with BMP-2 promoter (Experiment 1, 6.25 μg/ml), 165.630%. Besides, the “% 59-0008 Response” value is recorded as 164.450% with BMP-2 promoter (Experiment 1, 12.5 μg/ml); 137.500% with BMP-2 promoter (Experiment 1, 25 μg/ml); −22.660% in the experiment with BMP-2 promoter (Experiment 1, 50 μg/ml); −22.700% in the experiment on BMP-2 promoter (Experiment 1, 200 μg/ml); −3.26% in the experiment on BMP-2 promoter (Experiment 3, 0.002842 μg/ml); −3.84% with BMP-2 promoter (Experiment 3, 0.009094 μg/ml). Besides, the “% 59-0008 Response” value is on record as −5.18% with BMP-2 promoter (Experiment 3, 0.029103 μg/ml); −2.11% in the experiment on BMP-2 promoter (Experiment 3, 0.093132 μg/ml); −3.26% in the experiment with BMP-2 promoter (Experiment 3, 0.298023 μg/ml); 2.3% in the experiment with BMP-2 promoter (Experiment 3, 0.953674 μg/ml); 22.66% with BMP-2 promoter (Experiment 3, 3.051757 μg/ml); 103.7% in the experiment with BMP-2 promoter (Experiment 3, 9.765625 μg/ml). In addition, the “% 59-0008 Response” value in the experiment on BMP-2 promoter (Experiment 3, 31.25 μg/ml) is reported as 122.53%; with BMP-2 promoter (setting [2]) it was −0.19%. Further, the “Fold increase over negative control” value is listed as 2.630 fold in the experiment with BMP-2 promoter (Experiment 1, 0.195312 μg/ml); 2.243 fold with BMP-2 promoter (Experiment 1, 0.390625 μg/ml); 4.328 fold in the experiment on BMP-2 promoter (Experiment 1, 0.78125 μg/ml); 6.223 fold with BMP-2 promoter (Experiment 1, 1.5625 μg/ml); 8.672 fold in the experiment on BMP-2 promoter (Experiment 1, 3.125 μg/ml); 8.333 fold with BMP-2 promoter (Experiment 1, 6.25 μg/ml). In addition, the “Fold increase over negative control” value was 8.281 fold in the experiment with BMP-2 promoter (Experiment 1, 12.5 μg/ml); 7.088 fold in the experiment on BMP-2 promoter (Experiment 1, 25 μg/ml); −0.003 fold with BMP-2 promoter (Experiment 1, 50 μg/ml); −0.005 fold with BMP-2 promoter (Experiment 1, 200 μg/ml); 0.83 fold in the experiment on BMP-2 promoter (Experiment 3, 0.002842 μg/ml); 0.8 fold in the experiment on BMP-2 promoter (Experiment 3, 0.009094 μg/ml). The “Fold increase over negative control” value with BMP-2 promoter (Experiment 3, 0.029103 μg/ml) turned out to be 0.73 fold; in the experiment with BMP-2 promoter (Experiment 3, 0.093132 μg/ml), 0.89 fold; with BMP-2 promoter (Experiment 3, 0.298023 μg/ml), 0.83 fold; in the experiment on BMP-2 promoter (Experiment 3, 0.953674 μg/ml) it was 1.12 fold; in the experiment with BMP-2 promoter (Experiment 3, 3.051757 μg/ml) it was 2.18 fold; in the experiment with BMP-2 promoter (Experiment 3, 9.765625 μg/ml) it was 6.4 fold. Also, the “Fold increase over negative control” value was 7.38 fold in the experiment on BMP-2 promoter (Experiment 3, 31.25 μg/ml) and 0.99 fold with BMP-2 promoter (setting [2]).

Source of the values: US6642216B2, “Isoprenoid pathway inhibitors for stimulating bone growth” (ZymoGenetics Corporation, priority 1996, dated 2003).
